pIC50: −log10 of the molar value.
Experiments:
NaV1.6 = NaV1.6 (Homo sapiens (Human), UniProt Q9UQD0); assay: Sodium Influx Assay (Flux), NaV1.6; details: read-out: Flux NaV1.6 IC50; Trex HEK293 cells, ANG2 dye; arithmetic mean
NaV1.1 = NaV1.1 (Homo sapiens (Human), UniProt P35498); assay: Sodium Influx Assay (Flux), NaV1.1; assay type: cell-based; details: Trex HEK293 cells, ANG2 dye; arithmetic mean

With “(S)-2-fluoro-4-((1-(2-hydroxybenzyl)-pyrrolidin-3-yl)(methyDamino)-5-methyl-N-(thiazol-4-yl)benzenesulfonamide [Example 113]” the pIC50 (NaV1.6) was 6.59 and the pIC50 (NaV1.1) was 4.75.
